One may read the MIC as the least concentration at which growth counts as inhibited. High values mean a less susceptible organism, low ones a more susceptible organism.

The values that follow come from publication PMC3390344, “Antibacterial Activity and Mechanism of a Scorpion Venom Peptide Derivative In Vitro and In Vivo” (PLoS ONE, 2012).

Data set [1] deals with E. coli ATCC 25922. The data set can be described thus: MIC, broth microdilution (CLSI). Format: cell-based. As to conditions: E. coli ATCC 25922, Gram-negative, 96-well. The method, then: (§1) S. aureus AB94004, S. aureus ATCC 25923, E. coli AB94012, E. coli ATCC 25922, Pseudomonas aeruginosa AB93066, Bacillus thuringiensis AB92037, Bacillus subtilis AB91021, and Micrococcus luteus AB93113 were purchased from the China Center of Type Culture Collection (CCTCC).
(§2) The MIC was determined via a microdilution assay in 96-well microtiter plates according to the broth microdilution guideline of Clinical and Laboratory Standards Institute (CLSI).
For orientation: In broth dilution the organism is exposed to a series of concentrations in liquid medium.

The subject of data set [2] is S. aureus ATCC 25923. The data set can be described thus: MIC, broth microdilution (CLSI). Format: cell-based. As to conditions: S. aureus ATCC 25923, Gram-positive, 96-well. The procedure: as §1, §2
For data set [3], the system named is B. thuringiensis AB92037. The data set can be described thus: MIC, broth microdilution (CLSI). Format: cell-based, Bacillus thuringiensis. As to conditions: B. thuringiensis AB92037, Gram-positive, 96-well. The method, then: as §1, §2
The test system of data set [4] is M. luteus AB93113. The data set can be described thus: MIC, broth microdilution (CLSI). Format: cell-based, Micrococcus luteus. As to conditions: M. luteus AB93113, Gram-positive, 96-well. The method, then: as §1, §2
In data set [5] the test system is P. aeruginosa A093085. The data set can be described thus: MIC, broth microdilution (CLSI). Format: cell-based, Pseudomonas aeruginosa. As to conditions: P. aeruginosa A093085, clinical isolate. The method, then: (§3) Clinical isolated Pseudomonas aeruginosa strains A092994, A093052, A093056, A093085 and A093115 were obtained from Hubei Maternal and Child Health Hospital.
as §2

Data set [6] relates to P. aeruginosa A093052. The data set can be described thus: MIC, broth microdilution (CLSI). Format: cell-based, Pseudomonas aeruginosa. To be noted: P. aeruginosa A093052, clinical isolate. The procedure: as §3, §2
Data set [7] relates to P. aeruginosa A093115. Description: MIC, broth microdilution (CLSI). To be noted: P. aeruginosa A093115, clinical isolate. Format: cell-based, Pseudomonas aeruginosa. The procedure:
as §3, §2

The subject of data set [8] is P. aeruginosa A093056. The data set can be described thus: MIC, broth microdilution (CLSI). Format: cell-based, Pseudomonas aeruginosa. To be noted: P. aeruginosa A093056, clinical isolate. The procedure:
as §3, §2

Data set [9] relates to P. aeruginosa A092994. The data set can be described thus: MIC, broth microdilution (CLSI). Format: cell-based, Pseudomonas aeruginosa. As to conditions: P. aeruginosa A092994, clinical isolate. The method, then:
as §3, §2

Data set [10] has as its system human red blood cells. Description: Hemolytic activity. Format: cell-based. To be noted: 37 °C, 1 h, absorbance at 570 nm, positive control 0.1% Triton X-100, method of Käber modified by Achmarine. The method, then:
Figure 1 Screening, antimicrobial and hemolytic activities of Kn2-7 in vitro. (A) Multiple alignments of Kn2-7 and its seven derivatives. (B) Predicted secondary structure of Kn2-7 and its seven derivatives. (C) Antibacterial activity screening of Kn2-7 and its seven derivative peptides. (D) Hemolytic activity of Kn2-7. The hemolytic activities of the Kn2-7 and BmKn2 peptides were estimated by monitoring the increase in the absorbance at 570 nm after incubating human red blood cells with different peptide concentrations at 37 °C for 1 h. The positive control was 0.1% Triton X-100, and 0.85% saline was used as a blank. […] It is read as >100 for BmKn2, Kn2-3 and Kn2-4, and as 100 for Kn2-1, Kn2-2, Kn2-5 and Kn2-6.
The hemolytic activities of Kn2-7 and BmKn2 peptides were tested against human red blood cells. HC50 values were obtained according to the method of Käber, modified by Achmarine. Saline solution at a concentration of 0.85% was used as the negative control, and 0.1% Triton X-100 was used as the positive control.

Data set [11] concerns HIV-1. As to conditions: by direct interaction with viral particle; cited from earlier work. The text has this: In a previous study by our group, we characterized an antimicrobial peptide, BmKn2, derived from the venom of the scorpion Mesobuthus martensii Karsch. In the present study, a derivative of BmKn2, was designed to increase the antibacterial activity and reduce the hemolytic activity. […] In addit ...

Data set [12] deals with E. coli AB94012. Description: LTA and LPS competition binding assay (MIC). Format: cell-based. To be noted: controls of the competition assay (Figure 7C): untreated peptide, or LTA / LPS alone. The method, then:
To confirm the results of the BLI titrations, 250 µg/mL of Kn2-7 or BmKn2 was mixed with an equal volume of 1 mg/mL LTA or LPS. Then, the MICs of Kn2-7 or BmKn2 mixed with LTA against S. aureus and E. coli were measured. […] The MICs of Kn2-7 and BmKn2 treated with LTA against S. aureus were 25 and 12.5 µg/mL, respectively.
A total of 250 µg/mL of each peptide solution was mixed with an equal volume of 1 mg/mL of the LTA or LPS solution. Then, the MICs of BmKn2 and Kn2-7 treated with LTA or LPS against S. aureus AB94004 and E. coli AB94012 were measured.

In data set [13] the test system is E. coli AB94012. Description: Transmission electron microscopy. Format: cell-based. To be noted: E. coli AB94012, 1×MIC, treated for 2 min, semi-thin sections. The procedure: (§4) Figure 6 Transmission electron microscopy of S. aureus and E. coli treated with Kn2-7. (A) Transmission electron microscopy was performed with Kn2-7-treated S. aureus. (A1), (A2) and (A3) were negative controls. (A4), (A5) and (A6) show S. aureus treated with Kn2-7 for 2 min. (A7), (A8) and (A9) show S. aureus treated with BmKn2 for 2 min. (B) Transmission electron microscopy was performed with Kn2-7-treated E. coli. (B1), (B2) and (B3) were the negative controls. (B4), (B5) and (B6) show E. coli treated with Kn2-7 for 2 min. (B7), (B8) and (B9) show E. coli treated with BmKn2 for 2 min.
(§5) Overnight-cultured S. aureus AB94004 and E. coli AB94012 were transferred to LB medium and cultured to the exponential phase. A 200 µl aliquot of the peptide solution was added to 800 µl of the bacterial suspensions at the final concentration of 1×MIC. The samples were cut into semi-thin sections. Microscopy was performed using a HITACHI H-8100 Transmission Electron Microscope.

Data set [14] relates to S. aureus AB94004. Description: Transmission electron microscopy. Format: cell-based. As to conditions: 1×MIC, treated for 2 min, semi-thin sections. The procedure:
as §4, §5

Ends that are not written are not given here. Where only a bound is given, the exact number is not on record here.

Turning to FIGAIARLLSKIF-NH2 [BmKn2], the minimum inhibitory concentration (MIC) in [1] is on record as greater than 100 µg/mL; in [2], 6.25 µg/mL; in data set [3], 12.5 µg/mL; in data set [4], 6.25 µg/mL; in data set [5] it was greater than 100 µg/mL; in [6], greater than 100 µg/mL. Moreover, the MIC in [7], in [8] and in [9] was greater than 100 µg/mL in each case. In addition, the “HC50 (hemolytic activity)” value in data set [10] is given as 17.13 µg/mL.
FIKRIARLLRKIF [Kn2-7]: in data set [11], the “Inhibition of HIV-1” value is recorded as “could inhibit HIV-1”. The “MIC E.coli, substance alone” value in data set [12] is given as 6.25 µg/mL. Besides, the figures for the “Structural changes of cell wall and membrane (TEM)” value in data set [13] and in data set [14] were “formed microspheres that surrounded the bacteria” and “disrupted immediately”, respectively.
